Legend:
[1] = tested on: velvetleaf (Abutilon theophrasti); assay: Greenhouse test, combination of Procedures II and III (Examples 1, 2; Tables 1, 2); type: in vivo; settings: for % Injury VELE: 3 weeks; for Percent Injury VELE: 7 weeks
Corn [2] = assay: Field trials, PPI, PRE and POE herbicide applications with terbufos (Example 7); type: in vivo; settings: mean of five locations, soil-applied insecticide prior to planting
From the text: This example summarizes the results of one series of field trials from a plurality of locations and soil types wherein test chemicals were applied in various modes including pre-plant incorporated (PPI), post emergence (POE) and preemergence (PRE) with and without a safener (antidote). Test Chemicals were Herbicide Nos 1, 2, 3 and 7-9; Insecticide No. 1 and Antidote No. 1.
In these trials Insecticide No. 1 (terbufos) was T-banded or furrow applied at labeled rates prior to planting corn. PPI herbicide treatments were applied prior to insecticide applications; PRE treatments were applied after the insecticide application either prior to or after seeding the corn. POE herbicide applications were made at 2 corn-growth stages, i.e., early post (EP) at the 2-3 leaf stage and late post (LP) at the 4-7 leaf stage. Plots were small plot with 3 replications in a randomized complete block design. In the PRE and PPI herbicide treatments, Antidote No. 1 was applied as a tankmix in both treatments. In the POE herbicide treatments, that antidote was applied as a tank mix with the herbicide at the EP and LP stages.

VELE (velvetleaf) = assay: Greenhouse test Procedure II (Example 4; Table 4); type: in vivo, Abutilon theophrasti; settings: 3 weeks
In short: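 Herbicide, insecticide and antidote in acetone were track-sprayed sequentially onto a soil cover layer, incorporated and spread over seeded beds in silt loam. Initial overhead irrigation equal to 0.6 cm rainfall, then sub-irrigation in the greenhouse. Injury was rated 3 weeks after treatment against untreated and herbicide-only controls.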

Corn [3] = assay: Greenhouse test, combination of Procedures II and III: insecticide in-furrow or in cover layer, herbicide and antidote incorporated in cover layer (Examples 1-3, 6; Tables 1-3, 6); type: in vivo; settings: for % Injury Corn / % Corn Injury PN 3320 / % Corn Injury PN 3377: 3 weeks; for Percent Injury Corn: 7 weeks
[4] = Ex. 2: Insecticide 1 0.11 kg/305m + Herbicide 1 0.14 Kg/Ha
[5] = Ex. 2: Insecticide 1 0.11 kg/305m + Herbicide 1 0.56 Kg/Ha
[6] = Ex. 2: Insecticide 1 0.23 Kg/305m + Herbicide 1 0.14 + Herbicide 2 4.48 Kg/Ha
[7] = Ex. 2: Insecticide 1 0.23 Kg/305m + Herbicide 1 0.14 Kg/Ha
[8] = Ex. 2: Insecticide 1 0.23 Kg/305m + Herbicide 1 0.56 Kg/Ha
[9] = Ex. 2: Insecticide 2 3.36 Kg/Ha + Herbicide 1 0.14 + Herbicide 2 4.48 Kg/Ha
[10] = Insecticide 1 0.23 kg/305m + Herbicide 1 0.14 Kg/Ha
[11] = Insecticide 1 0.23 kg/305m + Herbicide 1 0.56 Kg/Ha
[12] = Insecticide 1 0.23 kg/305m + Herbicide 1 2.24 Kg/Ha
[13] = Insecticide 2 3.36 kg/ha + Herbicide 1 0.14 Kg/Ha
[14] = Insecticide 2 3.36 kg/ha + Herbicide 1 0.56 Kg/Ha
[15] = Insecticide 2 3.36 kg/ha + Herbicide 1 2.24 Kg/Ha
[16] = Ex. 6: Insecticide 1 0.23 Kg/305m + Herbicide 1 0.14 Kg/Ha
[17] = Ex. 6: Insecticide 1 0.23 Kg/305m + Herbicide 1 0.56 Kg/Ha
[18] = Ex. 6: Insecticide 2 0.23 Kg/305m + Herbicide 1 0.14 Kg/Ha
[19] = Ex. 6: Insecticide 2 0.23 Kg/305m + Herbicide 1 0.56 Kg/Ha

## COC(=O)c1c(Cl)nn(C)c1S(=O)(=O)NC(=O)Nc1nc(OC)cc(OC)n1 [Herbicide No. 1, N-[(4,6-dimethoxypyrimidin-2-yl)aminocarbonyl]-3-chloro-4-methoxycarbonyl-5-sulfonamide, reference compound]
[1]; Ex. 2: Herbicide 1 0.14 Kg/Ha
  % Injury VELE: 89%
[1]; Ex. 2: Herbicide 1 0.56 Kg/Ha
  % Injury VELE: 93%
[1]; [4]
  % Injury VELE: 93%
[1]; [5]
  % Injury VELE: 94%
[1]; [6]
  % Injury VELE: 95%
[1]; [7]
  % Injury VELE: 83%
[1]; [8]
  % Injury VELE: 95%
[1]; [9]
  % Injury VELE: 88%
[1]; Herbicide 1 0.14 Kg/Ha
  Percent Injury VELE: 90%
[1]; Herbicide 1 0.56 Kg/Ha
  Percent Injury VELE: 95%
[1]; Herbicide 1 2.24 Kg/Ha
  Percent Injury VELE: 92%
[1]; [10]
  Percent Injury VELE: 90%
[1]; [11]
  Percent Injury VELE: 92%
[1]; [12]
  Percent Injury VELE: 95%
[1]; [13]
  Percent Injury VELE: 78%
[1]; [14]
  Percent Injury VELE: 92%
[1]; [15]
  Percent Injury VELE: 92%
Corn [2]
  interaction with Insecticide No. 1 after POE herbicide: insignificant interaction
VELE (velvetleaf); Herbicide 1 0.07 kg/Ha
  % Injury VELE: 20%
VELE (velvetleaf); Herbicide 1 0.14 kg/Ha
  % Injury VELE: 67%
VELE (velvetleaf); Insecticide 2 3.36 + Herbicide 1 0.07 kg/Ha
  % Injury VELE: 10%
VELE (velvetleaf); Insecticide 2 3.36 + Herbicide 1 0.14 kg/Ha
  % Injury VELE: 20%
Corn [3]; Ex. 2: Herbicide 1 0.14 Kg/Ha
  % Injury Corn: 4%
Corn [3]; Ex. 2: Herbicide 1 0.56 Kg/Ha
  % Injury Corn: 58%
Corn [3]; Ex. 2: Herbicide No. 1 0.14 kg/ha + Insecticide No. 2, no antidote
  injury to corn: 65%
Corn [3]; [4]
  % Injury Corn: 83%
Corn [3]; [5]
  % Injury Corn: 93%
Corn [3]; [6]
  % Injury Corn: 90%
Corn [3]; [7]
  % Injury Corn: 83%
Corn [3]; [8]
  % Injury Corn: 96%
Corn [3]; [9]
  % Injury Corn: 83%
Corn [3]; Ex. 3: Herbicide 1 0.14 Kg/Ha
  % Injury Corn: 10%
Corn [3]; Ex. 3: Herbicide 1 0.56 Kg/Ha
  % Injury Corn: 63%
Corn [3]; Ex. 3: Insecticide 3 (227 g) + Herbicide 1 0.14 + Herbicide 2 4.48 Kg/Ha
  % Injury Corn: 73%
Corn [3]; Ex. 3: Insecticide 3 (227g) + Herbicide 1 0.14 Kg/Ha
  % Injury Corn: 45%
Corn [3]; Ex. 3: Insecticide 3 (227g) + Herbicide 1 0.56 Kg/Ha
  % Injury Corn: 93%
Corn [3]; Ex. 3: Insecticide 4 (227g) + Herbicide 1 0.14 + Herbicide 2 4.48 Kg/Ha
  % Injury Corn: 88%
Corn [3]; Ex. 3: Insecticide 4 (227g) + Herbicide 1 0.14 Kg/Ha
  % Injury Corn: 55%
Corn [3]; Ex. 3: Insecticide 4 (227g) + Herbicide 1 0.56 Kg/Ha
  % Injury Corn: 45%
Corn [3]; Ex. 6: Herbicide 1 0.14 Kg/Ha
  % Corn Injury PN 3320: 85%
  % Corn Injury PN 3377: 12%
Corn [3]; Ex. 6: Herbicide 1 0.56 Kg/Ha
  % Corn Injury PN 3320: 88%
  % Corn Injury PN 3377: 23%
Corn [3]; [16]
  % Corn Injury PN 3320: 95%
  % Corn Injury PN 3377: 78%
Corn [3]; [17]
  % Corn Injury PN 3320: 95%
  % Corn Injury PN 3377: 90%
Corn [3]; [18]
  % Corn Injury PN 3320: 85%
  % Corn Injury PN 3377: 48%
Corn [3]; [19]
  % Corn Injury PN 3320: 88%
  % Corn Injury PN 3377: 90%
Corn [3]; Herbicide 1 0.14 Kg/Ha
  Percent Injury Corn: 18%
Corn [3]; Herbicide 1 0.56 Kg/Ha
  Percent Injury Corn: 58%
Corn [3]; Herbicide 1 2.24 Kg/Ha
  Percent Injury Corn: 85%
Corn [3]; [10]
  Percent Injury Corn: 85%
Corn [3]; [11]
  Percent Injury Corn: 97%
Corn [3]; [12]
  Percent Injury Corn: 95%
Corn [3]; [13]
  Percent Injury Corn: 60%
Corn [3]; [14]
  Percent Injury Corn: 90%
Corn [3]; [15]
  Percent Injury Corn: 95%

From EP0565593B1, “REDUCING PESTICIDAL INTERACTIONS IN CROPS” (priority 1990, dated 1992)
